Structures can show the parent of a compound that is named as a salt.
Assays:
Swiss-Webster mice = assay: Locomotor stimulant and depressant effects in mice; settings: i.p.
Protocol: Male Swiss-Webster mice (HSD ND4, Harlan Sprague Dawley, Houston, Tex.) aged 2–3 months were used in these studies. Each dose group consisted of 8 mice. The mice were housed 2 to 4 per cage in 30.4×22.9×15.2 cm clear polycarbonate cages with food and water available ad libitum for at least one week prior to locomotor activity testing. The colony was maintained at 23±1° C., on a normal light-dark cycle beginning at 0700 hr. All testing took place during the light portion of the light-dark cycle.
Horizontal (forward movement) locomotor activity was measured using a standardized, optical activity monitoring system [Model KXYZCM (16), Omnitech Electronics, Columbus, Ohio]. Activity was monitored in forty 40.5×40.5×30.5 cm clear acrylic chambers that where housed in sets of two within larger sound-attenuating chambers. A panel of 16 infrared beams and corresponding photodetectors were spaced 2 cm apart along the sides and 2.4 cm above the floor of each activity chamber. A 7.5-W incandescent light above each chamber provided dim illumination via a rheostat set to 20% of full scale. Fans provided an 80-dB ambient noise level within the chamber.
Triprolidine HCl was obtained from Research Biochemicals International, (Natick, Mass.).
Locomotor stimulant effects. […] (+)-Amphetamine was used as a positive control. The total horizontal distance traversed (cm) was recorded at 10 minute intervals for a 2-hour session. Separate groups of 8 mice were assigned to each dose or saline group, and dose-effect testing continued for each compound until maximal stimulant or depressant effects could be estimated. A separate control group was tested along with each compound.
Using TableCurve 2D v2.03 (Jandel Scientific), the mean average total distance traversed (cm/10 min) for that period was fit to a 3-parameter logistic peak function of log10 dose (with the constant set to the mean of the saline group), and the maximum effect estimated from the resulting curve. The […] (dose producing ½ maximal stimulant activity) was estimated from a linear regression against log10 dose of the ascending portion of the dose-effect curve. The stimulant efficacy was the peak effect of the compound (cm/10 min) as estimated from the logistic peak function, minus the mean control distance traveled (cm/10 min), and was expressed for each stimulant compound as a ratio to the stimulant efficacy determined for (+)-amphetamine.
The mean average total distance traversed (cm/10 min) for that period were fit to a linear function of log10 dose of the descending portion of the dose-effect curve. […] Efficacy was the ratio of maximal depressant effect to maximum possible depression for each compound (mean average total distance of the control group minus the lowest mean total distance, expressed as a ratio to the control group total distance).
Statistical analysis. Time course data for each compound were considered in 2-way analyses of variance with dose as a between-group and time as a within-group factor. The dose-effect data were considered in 1-way analyses of variance, and planned individual comparisons were conduced between each dose and the saline control group. Interaction studies were considered in 2-way analyses of variance, with Pretreatment and Test dose as the factors.

α2 adrenergic receptors = assay: Alpha-2 binding, 125iodoclonidine, canine brain (frontal cortex) membranes; parameters: species or system canine (mongrel dogs); settings: α2-displacement assay, check for imidazoline receptors
Protocol: BRAIN ALPHA-2 RECEPTORS: Membranes of mongrel dogs were harvested from the canine frontal cortex and prepared as described for lung except that the final membrane protein concentration was adjusted to 0.5 mg/ml.
ALPHA-2 BINDING ^125IODOCLONIDINE. […] Nonspecific binding was determined in separate incubations in the presence of 10 μM phentolamine. The final concentration of p-iodoclonidine was 44–45 pM in competition studies and between 50 pM and 10 nM in saturation experiments. Bound and free p-^125iodoclonidine were separated and the bound quantified as described above for the ICYP assays. […] BETA-2 BINDING, ^125IODOCYANOPINDOLOL (^125ICYP). […] Nonspecific binding was determined in separate incubations in the presence of 2 μM d,l-propranolol. Each experimental point was determined in triplicate. […] Incubations were terminated as described above for the α1 assays. Filters were placed into polyethylene tubes and the bound ligand was determined by gamma spectrometry (Sano et al., 1993).
All data were analyzed with the aid of microcomputer nonlinear curve fitting programs (PRISM 2.0, Graphpad Software, San Diego Calif.).
The receptors resident in each of the three membrane preparations were evaluated by standard saturation analysis following the addition of increasing concentrations of the appropriate radioligand. […] The radio ligand added for subsequent α2-displacement assays was adjusted to evaluate only the high affinity receptor. Contributions from p-iodoclonidine binding to imidazoline receptors in the α2-displacement assay were evaluated with epinephrine.
The variable, I, is the concentration of tracer added and the variable, Kd, is the equilibrium dissociation constant empirically determined for this receptor population.

[1] = test system: New Zealand white rabbits; assay: Pupil diameter / mydriasis after topical application to the rabbit eye; type: in vivo; parameters: key to Mydriatic Responses, UNTREATED EYE: 0 = No change; + = 0–2 mm change; ++ = 2–4 mm change; settings: for Pupil Diameter: mean ± S.E.
Protocol: (§1) These diastereomers were administered topically as either 1% or 2% solutions in buffered saline. Pupillary diameter and IOP were measured in all animals over a six hour time period during the day to minimize diurnal variations in IOP and pupil diameter.
(§2) The experiments were performed on adult male New Zealand white rabbits weighing 3.0–6.0 kg. All rabbits were caged individually and maintained on a 12 hr/12 hr light/dark schedule with free access to food and water. All animal procedures were in conformity with the ARVO Resolution on the Use and Care of Animals in Research. All treated rabbits had served as controls by having received a saline treatment on a different day.
(§3) Only one eye received drug treatment. The contralateral eye served as a control. Saline (or PBS) and drug treated rabbits were treated and observed simultaneously. A single dose was given at time zero and IOP and pupil diameter measured at −1.0, −0.5, 0.5, 1, 3 and 5 hrs post-treatment.
Pupil diameter was measured visually at the point of the greatest horizontal diameter with a transparent millimeter ruler. All measurements were made under the identical ambient lighting conditions.
(§4) Mean and Standard Error values were used to construct time-response and dose-response curves for the treated and contralateral eye of research rabbits. The data were analyzed statistically by an analysis of variance and a Bonferoni's test for significance. P<0.05 was the accepted level of significance.

[2] = test system: New Zealand white rabbits; assay: Intraocular pressure (IOP) after topical application to the rabbit eye; type: in vivo; settings: for IOP: mean ± S.E.
Protocol: as §1, §2, §3
IOP measurements were recorded with an Alcon Applanation Pneumotonograph (Surgical Products Division, Alcon Laboratories, Inc., Ft. Worth, Tex.) in rabbits placed in Lucite restraining cages. Initial topical application of a two drop 0.5% proparacaine HCl (Ophthetic®, Allergan Pharmaceuticals, Inc.) was performed on each rabbit.
as §4

[3] = 1% topical, drug treated eye (T), 0.5 hr
[4] = 1% topical, drug treated eye (T), 1 hr
[5] = 1% topical, drug treated eye (T), 3 hr
[6] = 1% topical, drug treated eye (T), 5 hr
[7] = 1% topical, drug treated eye (T), −0.5 hr (pre-treatment)
[8] = 1% topical, drug treated eye (T), −1 hr (pre-treatment)
[9] = 1% topical, untreated contralateral eye (U), 0.5 hr
[10] = 1% topical, untreated contralateral eye (U), 1 hr
[11] = 1% topical, untreated contralateral eye (U), 3 hr
[12] = 1% topical, untreated contralateral eye (U), 5 hr
[13] = 1% topical, untreated contralateral eye (U), −0.5 hr (pre-treatment)
[14] = 1% topical, untreated contralateral eye (U), −1 hr (pre-treatment)
[15] = 2% topical, drug treated eye (T), 0.5 hr
[16] = 2% topical, drug treated eye (T), 1 hr
[17] = 2% topical, drug treated eye (T), 3 hr
[18] = 2% topical, drug treated eye (T), 5 hr
[19] = 2% topical, drug treated eye (T), −0.5 hr (pre-treatment)
[20] = 2% topical, drug treated eye (T), −1 hr (pre-treatment)
[21] = 2% topical, untreated contralateral eye (U), 0.5 hr
[22] = 2% topical, untreated contralateral eye (U), 1 hr
[23] = 2% topical, untreated contralateral eye (U), 3 hr
[24] = 2% topical, untreated contralateral eye (U), 5 hr
[25] = 2% topical, untreated contralateral eye (U), −0.5 hr (pre-treatment)
[26] = 2% topical, untreated contralateral eye (U), −1 hr (pre-treatment)

CC(N)Cc1ccccc1 (single isomer, unassigned; (+)) [(+)-amphetamine, (+)-Amphetamine]
locomotor stimulant effects, time course (result in words) (Swiss-Webster mice): dose- and time-dependent increase in the distance traversed within 10 minutes following injection

CNC[C@H](O)c1ccc(O)c(O)c1 [Epinephrine]
displacement of bound p-iodoclonidine (α2 adrenergic receptors): easily displaced all bound p-iodoclonidine

Mephentermine Hemisulfate Salt [reference compound]
Mydriatic Responses, TREATED EYE ([1]; 1% topical): ++ (++ = 2–4 mm change)
Mydriatic Responses, UNTREATED EYE ([1]; 1% topical): 0
Pupil Diameter [1, 3]: 10 ± 0.2 mm
Pupil Diameter [1, 4]: 10 ± 0.2 mm
Pupil Diameter [1, 5]: 10 ± 0.2 mm
Pupil Diameter [1, 6]: 10 ± 0.2 mm
Pupil Diameter [1, 7]: 7 ± 0.2 mm
Pupil Diameter [1, 8]: 7 ± 0.2 mm
Pupil Diameter [1, 9]: 7 ± 0.2 mm
Pupil Diameter [1, 10]: 7 ± 0.2 mm
Pupil Diameter [1, 11]: 7 ± 0.2 mm
Pupil Diameter [1, 12]: 7 ± 0.2 mm
Pupil Diameter [1, 13]: 7 ± 0.2 mm
Pupil Diameter [1, 14]: 7 ± 0.2 mm
Mydriatic Responses, TREATED EYE ([1]; 2% topical): + (+ = 0–2 mm change)
Mydriatic Responses, UNTREATED EYE ([1]; 2% topical): 0
Pupil Diameter [1, 15]: 7 ± 0.7 mm
Pupil Diameter [1, 16]: 8 ± 0.7 mm
Pupil Diameter [1, 17]: 6 ± 0.4 mm
Pupil Diameter [1, 18]: 6 ± 0.4 mm
Pupil Diameter [1, 19]: 6 ± 0.3 mm
Pupil Diameter [1, 20]: 6 ± 0.3 mm
Pupil Diameter [1, 21]: 6 ± 0.3 mm
Pupil Diameter [1, 22]: 6 ± 0.3 mm
Pupil Diameter [1, 23]: 6 ± 0.3 mm
Pupil Diameter [1, 24]: 6 ± 0.3 mm
Pupil Diameter [1, 25]: 6 ± 0.4 mm
Pupil Diameter [1, 26]: 6 ± 0.4 mm
IOP [2, 3]: 24 ± 1.0 mmHg
IOP [2, 4]: 24 ± 0.7 mmHg
IOP [2, 5]: 22 ± 0.9 mmHg
IOP [2, 6]: 18 ± 1.6 mmHg
IOP [2, 7]: 18 ± 1.8 mmHg
IOP [2, 8]: 19 ± 1.7 mmHg
IOP [2, 9]: 20 ± 2.1 mmHg
IOP [2, 10]: 17 ± 1.6 mmHg
IOP [2, 11]: 20 ± 1.4 mmHg
IOP [2, 12]: 17 ± 1.5 mmHg
IOP [2, 13]: 17 ± 1.0 mmHg
IOP [2, 14]: 17 ± 1.1 mmHg
IOP [2, 15]: 23 ± 2.2 mmHg
IOP [2, 16]: 23 ± 2.2 mmHg
IOP [2, 17]: 21 ± 2.3 mmHg
IOP [2, 18]: 23 ± 1.5 mmHg
IOP [2, 19]: 19 ± 2.0 mmHg
IOP [2, 20]: 21 ± 2.3 mmHg
IOP [2, 21]: 18 ± 1.6 mmHg
IOP [2, 22]: 16 ± 1.0 mmHg
IOP [2, 23]: 18 ± 0.8 mmHg
IOP [2, 24]: 20 ± 1.7 mmHg
IOP [2, 25]: 17 ± 2.1 mmHg
IOP [2, 26]: 18 ± 2.2 mmHg

C[C@H](N)[C@H](O)c1cccc(O)c1 [Metaraminol Bitartrate Salt, USP, metaraminol bitartrate salt, reference compound]
mydriasis / pupil diameter (result in words) ([1]; 1% or 2% topical, rabbit): produced mydriasis
Mydriatic Responses, TREATED EYE ([1]; 1% topical): ++ (++ = 2–4 mm change)
Mydriatic Responses, UNTREATED EYE ([1]; 1% topical): 0
Pupil Diameter [1, 3]: 9 ± 0.5 mm
Pupil Diameter [1, 4]: 9 ± 0.5 mm
Pupil Diameter [1, 5]: 9 ± 0.2 mm
Pupil Diameter [1, 6]: 9 ± 0.5 mm
Pupil Diameter [1, 7]: 7 ± 0.5 mm
Pupil Diameter [1, 8]: 7 ± 0.5 mm
Pupil Diameter [1, 9]: 7 ± 0.5 mm
Pupil Diameter [1, 10]: 7 ± 0.5 mm
Pupil Diameter [1, 11]: 7 ± 0.5 mm
Pupil Diameter [1, 12]: 7 ± 0.5 mm
Pupil Diameter [1, 13]: 7 ± 0.5 mm
Pupil Diameter [1, 14]: 7 ± 0.5 mm
Pupil Diameter [1, 15]: 10 ± 0.2 mm
Pupil Diameter [1, 16]: 10 ± 0.2 mm
Pupil Diameter [1, 17]: 10 ± 0.2 mm
Pupil Diameter [1, 18]: 10 ± 0.2 mm
Pupil Diameter [1, 19]: 5 ± 0.2 mm
Pupil Diameter [1, 20]: 5 ± 0.2 mm
Pupil Diameter [1, 21]: 10 ± 0.2 mm
Pupil Diameter [1, 22]: 10 ± 0.2 mm
Pupil Diameter [1, 23]: 10 ± 0.2 mm
Pupil Diameter [1, 24]: 10 ± 0.2 mm
Pupil Diameter [1, 25]: 5 ± 0.2 mm
Pupil Diameter [1, 26]: 5 ± 0.2 mm
effect on IOP (result in words) ([2]; 1% or 2% topical, rabbit): accompanying increase in IOP
IOP [2, 3]: 25 ± 1.2 mmHg
IOP [2, 4]: 24 ± 1.3 mmHg
IOP [2, 5]: 21 ± 2.8 mmHg
IOP [2, 6]: 21 ± 2.7 mmHg
IOP [2, 7]: 19 ± 1.3 mmHg
IOP [2, 8]: 21 ± 2.3 mmHg
IOP [2, 9]: 18 ± 1.7 mmHg
IOP [2, 10]: 18 ± 1.0 mmHg
IOP [2, 11]: 19 ± 1.4 mmHg
IOP [2, 12]: 17 ± 0.8 mmHg
IOP [2, 13]: 16 ± 1.1 mmHg
IOP [2, 14]: 18 ± 1.4 mmHg
IOP [2, 15]: 15 ± 1.1 mmHg
IOP [2, 16]: 16 ± 3.6 mmHg
IOP [2, 17]: 14 ± 2.0 mmHg
IOP [2, 18]: 13 ± 0.8 mmHg
IOP [2, 19]: 14 ± 0.9 mmHg
IOP [2, 20]: 15 ± 0.7 mmHg
IOP [2, 21]: 19 ± 1.1 mmHg
IOP [2, 22]: 18 ± 0.8 mmHg
IOP [2, 23]: 19 ± 1.1 mmHg
IOP [2, 24]: 21 ± 1.6 mmHg
IOP [2, 25]: 15 ± 0.7 mmHg
IOP [2, 26]: 17 ± 1.2 mmHg
